Source: patent US20140371243A1, “MEDICAL USE OF A DPP-4 INHIBITOR” (Boehringer Ingelheim International GmbH, priority 2013, published 2014)

How the values were obtained:
[1] = system: active GLP-1; test: Serum active GLP-1 concentration (ELISA) in non-diabetic mice; type: in vivo, C57BL/6 mice; conditions: linagliptin vs. control, 0.083 g/kg chow (3 mg/kg/d oral)
Text: (§1) 6-week-old male C57BL/6 mice were purchased and were housed in a polycarbonate cage with a wooden chip mat on the floor; water was available ad libitum. C57BL/6 mice were divided into 2 groups: control (n=14) and linagliptin-treated (n=14). At age 7 weeks, control mice were fed normal chow (22.6% protein, 53.8% carbohydrate, 5.6% fat, 6.6% mineral and vitamin mixture, and 3.3% fiber; total: 356 kcal/100 g) with vehicle; linagliptin-treated mice were fed normal chow with linagliptin (0.083 g/kg chow, which results in mean plasma levels of 50-150 nM, corresponding to an oral dose of 3 mg/kg/d). The animal room was kept on a 12-h light/dark cycle at a constant temperature (22±1° C.) with relative humidity of 55±5% throughout the experimental period. Endothelial denudation injuries were induced in the femoral artery at age 8 weeks, followed by evaluation of neointimal formation at age 12 weeks.

[2] = Plasma levels of linagliptin in mice fed linagliptin in chow; type: in vivo, C57BL/6 mice; conditions: 0.083 g/kg chow, corresponding to oral dose of 3 mg/kg/d
Text: as §1

[3] = Body weight and blood glucose in non-diabetic mice; type: in vivo, C57BL/6 mice; conditions: linagliptin vs. control, 0.083 g/kg chow (3 mg/kg/d oral)
Text: as §1

[4] = system: rat aortic SMC; test: FBS-induced vascular smooth muscle cell proliferation, BrdU incorporation assay; type: cell-based; conditions: in vitro, 10% FBS for 24 h, 12-h pre-treatment of linagliptin
Experimental: Rat aortic vascular SMC (VSMC) and mouse aortic VSMC were serum-deprived in Dulbecco's modified Eagle's medium containing 0.1% fetal bovine serum (FBS) for at least 24 h and subjected to mitogenic stimulation with 10% FBS for 24 h with or without 12-h pre-treatment of linagliptin at the indicated concentration BrdU Assay. To evaluate cell proliferation of rat aortic SMC, the bromodeoxyuridine (BrdU) incorporation assay was performed using the Cell Proliferation enzyme-linked immunosorbent assay (ELISA) kit (1647229, Roche Applied Science, Mannheim, Germany) as previously described.

[5] = system: femoral arteries after vascular injury; test: Guidewire-induced femoral artery endothelial denudation injury, neointima formation (tissue analysis, elastic staining); type: in vivo, C57BL/6 mice; conditions: non-diabetic mice, femoral artery guide wire injury, 4 weeks after injury, 0.083 g/kg chow (3 mg/kg/d oral)
Text: as §1, with “weeks. Mouse femoral artery endothelial denudation injury was induced in C57BL/6 mice in the control and linagliptin groups at age 8 weeks, as previously described. […] Serial sections of 1.5 mm proximal region from the incision site for the wire insertion were evaluated by staining with Elastica van Gieson stain kit (4033-4037, Muto Pure Chemicals Co., Tokyo, Japan) to visualize the internal elastic lamina.” for “weeks.”

Question: Which “serum active GLP-1 concentration (ELISA)” value [1] does the source give for CC#CCn1c(N2CCC[C@@H](N)C2)nc2c1c(=O)n(Cc1nc(C)c3ccccc3n1)c(=O)n2C [Linagliptin, 1-[(4-methyl-quinazolin-2-yl)methyl]-3-methyl-7-(2-butyn-1-yl)-8-(3-(R)-amino-piperidin-1-yl)-xanthine] here?
Answer: Its value is “increases”.

Question: And the mean plasma levels [2]?
Answer: Its mean plasma levels is 50 to 150 nM.

Question: What about the blood glucose [3] of the same compound?
Answer: The blood glucose was “does not change”.

Question: And the body weight [3]?
Answer: Its body weight is “does not change”.

Question: What about the “FBS-induced vascular smooth muscle (SMC) proliferation (BrdU assay)” value [4] of the same compound?
Answer: Its value is “reduces”.

Question: What about the “neointima formation after vascular injury (intima area, media area, intima/media ratio)” value [5] of the same compound?
Answer: Its value is “attenuates”.
